Experimental data: patent US9925189B2, “Heterocyclic receptor agonists for the treatment of diabetes and metabolic disorders” (CymaBay Therapeutics, Inc., priority 2006, dated 2018)

Molecular target: T1, IC-GPCR2 (Homo sapiens, UniProt Q8TDV5, S309L)
T1 construct: expressed in transfected cells
T1 sequence (Q8TDV5 1-335 S309L): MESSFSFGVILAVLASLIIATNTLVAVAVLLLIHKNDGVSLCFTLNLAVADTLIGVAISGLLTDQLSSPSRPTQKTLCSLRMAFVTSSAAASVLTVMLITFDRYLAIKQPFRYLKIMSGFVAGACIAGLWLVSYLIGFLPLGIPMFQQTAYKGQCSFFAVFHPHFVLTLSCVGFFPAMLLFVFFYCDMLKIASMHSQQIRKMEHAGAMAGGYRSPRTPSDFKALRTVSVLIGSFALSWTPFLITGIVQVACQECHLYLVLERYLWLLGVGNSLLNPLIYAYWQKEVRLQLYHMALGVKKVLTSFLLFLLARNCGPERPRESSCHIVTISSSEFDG
Assay: Stimulation of cAMP in CHO cells stably expressing IC-GPCR2 (HTRF cAMP assay)
Type: cell-based
Details: 0.5 h, 30 minutes, IC-GPCR2 stably expressing CHO cells, read-out: Activity at 10 uM (% change in FRET signal from DMSO control)
Procedure, shortened: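 CHO cells stably expressing IC-GPCR2, plated at 17500 cells/well, treated next day for 30 min in Ham's F12 with compounds at 6–8 concentrations from 0.00003 to 10 μM; parental CHO cells also screened. Intracellular cAMP read by HTRF competitive immunoassay (665/620 nm ratio). Activity given as % FRET change from DMSO control.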

| activation at 10 µM | Compound |
| --- | --- |
| 74% | CCc1cnc(N2CCC(c3nc(COc4ccc(NC=O)cc4)cs3)CC2)nc1 [Example 116, N-(4-{2-[1-(5-Ethyl-pyrimidin-2-yl)-piperidin-4-yl]-thiazol-4-ylmethoxy}-phenyl)-formamide] |
| 65% | CCc1cnc(N2CCC(c3nc(COc4ccc(NS(C)(=O)=O)cc4)cs3)CC2)nc1 [Example 117, N-(4-{2-[1-(5-Ethyl-pyrimidin-2-yl)-piperidin-4-yl]-thiazol-4-ylmethoxy}-phenyl)-methanesulfonamide] |
| 64% | Cc1cc(-n2cnnn2)ccc1OCc1csc(C2CCN(C(=O)OC(C)(C)C)CC2)n1 [Example 118, 4-[4-(2-Methyl-4-tetrazol-1-yl-phenoxymethyl)-thiazol-2-yl]-piperidine-1-carboxylic acid tert-butyl ester] |
| 53% | CCc1cnc(N2CCC(c3nc(COc4ccc(-n5cnnn5)cc4C(F)(F)F)cs3)CC2)nc1 [Example 119, 5-Ethyl-2-{4-[4-(4-tetrazol-1-yl-2-trifluoromethyl-phenoxymethyl)-thiazol-2-yl]-piperidin-1-yl}-pyrimidine] |
| 73% | CCc1cnc(N2CCC(c3nc(COc4ccc(-n5cnnn5)cc4Cl)cs3)CC2)nc1 [Example 120, 2-{4-[4-(2-Chloro-4-tetrazol-1-yl-phenoxymethyl)-thiazol-2-yl]-piperidin-1-yl}-5-ethyl-pyrimidine] |
| 75% | CC(C)(C)OC(=O)N1CCC(c2nc(COc3ccc(-n4cnnn4)cc3)co2)CC1 [Example 121, 4-[4-(4-Tetrazol-1-yl-phenoxymethyl)-oxazol-2-yl]-piperidine-1-carboxylic acid tert-butyl ester] |
| 76% | CC(C)(C)OC(=O)N1CCC(c2nc(COc3ccc(-n4cnnn4)cc3F)co2)CC1 [Example 122, 4-[4-(2-Fluoro-4-tetrazol-1-yl-phenoxymethyl)-oxazol-2-yl]-piperidine-1-carboxylic acid tert-butyl ester] |
| 72% | CCc1cnc(N2CCC(c3nc(COc4ccc(S(C)(=O)=O)cc4)co3)CC2)nc1 [Example 123, 5-Ethyl-2-{4-[4-(4-methanesulfonyl-phenoxymethyl)-oxazol-2-yl]-piperidin-1-yl}-pyrimidine] |
| 80% | CCC(=O)c1cc(F)c(OCc2csc(C3CCN(C(=O)OC(C)(C)C)CC3)n2)c(F)c1 [Example 124, 4-[4-(2,6-Difluoro-4-propionyl-phenoxymethyl)-thiazol-2-yl]-piperidine-1-carboxylic acid tert-butyl ester] |
| 78% | CC(=O)c1ccc(OCc2csc(C3CCN(C(=O)OC(C)(C)C)CC3)n2)c(F)c1 [Example 125, 4-[4-(4-Acetyl-2-fluoro-phenoxymethyl)-thiazol-2-yl]-piperidine-1-carboxylic acid tert-butyl ester] |
| 87% | CC(C)(C)OC(=O)N1CCC(c2nc(COc3ccc(C#N)cc3F)cs2)CC1 [Example 126, 4-[4-(4-Cyano-2-fluoro-phenoxymethyl)-thiazol-2-yl]-piperidine-1-carboxylic acid tert-butyl ester] |
| 57% | CC(C)(C)OC(=O)N1CCC(c2nc(COc3ccc(-n4ccnn4)cc3)cs2)CC1 [Example 128, 4-[4-(4-[1,2,3]Triazol-1-yl-phenoxymethyl)-thiazol-2-yl]-piperidine-1-carboxylic acid tert-butyl ester] |
| 43% | CCOC(=O)c1ccc(OCc2csc(C3CCN(C(=O)OC(C)(C)C)CC3)n2)cc1 [Example 129, 4-[4-(4-Ethoxycarbonyl-phenoxymethyl)-thiazol-2-yl]-piperidine-1-carboxylic acid tert-butyl ester] |
| 24% | CC(C)(C)OC(=O)N1CCC(c2nc(COc3ccc(C(=O)O)cc3)cs2)CC1 [Example 131, 4-[4-(4-Carboxy-phenoxymethyl)-thiazol-2-yl]-piperidine-1-carboxylic acid tert-butyl ester] |
| 70% | CC(C)(C)OC(=O)N1CCC(c2nc(COc3c(F)cc(S(C)(=O)=O)cc3F)cs2)CC1 [Example 132, 4-[4-(2,6-Difluoro-4-methanesulfonyl-phenoxymethyl)-thiazol-2-yl]-piperidine-1-carboxylic acid tert-butyl ester] |
| 61% | CC(C)(C)OC(=O)N1CCC(c2nc(COc3ccc(N4CCOCC4)cc3)cs2)CC1 [Example 133, 4-[4-(4-Morpholin-4-yl-phenoxymethyl)-thiazol-2-yl]-piperidine-1-carboxylic acid tert-butyl ester] |
| 68% | CC(C)(C)OC(=O)N1CCC(c2nc(COc3ccc(SC(F)(F)F)cc3)cs2)CC1 [Example 134, 4-[4-(4-Trifluoromethylsulfanyl-phenoxymethyl)-thiazol-2-yl]-piperidine-1-carboxylic acid tert-butyl ester] |
| 66% | CC(C)(C)OC(=O)N1CCC(c2nc(COc3ccc(OCc4ccccc4)cc3)cs2)CC1 [Example 135, 4-[4-(4-Benzyloxy-phenoxymethyl)-thiazol-2-yl]-piperidine-1-carboxylic acid tert-butyl ester] |
| 35% | CC(C)(C)OC(=O)N1CCC(c2nc(COc3ccccc3)cs2)CC1 [Example 137, 4-(4-Phenoxymethyl-thiazol-2-yl)-piperidine-1-carboxylic acid tert-butyl ester] |
| 64% | CC(C)(C)OC(=O)N1CCC(c2nc(CNc3ccc(S(C)(=O)=O)cc3)cs2)CC1 [Example 138, 4-{4-[(4-Methanesulfonyl-phenylamino)-methyl]-thiazol-2-yl}-piperidine-1-carboxylic acid tert-butyl ester] |
| 62% | CC(C)(C)OC(=O)N1CCC(c2nc(COc3ccc(Br)cc3)cs2)CC1 [Example 140, 4-[4-(4-Bromo-phenoxymethyl)-thiazol-2-yl]-piperidine-1-carboxylic acid tert-butyl ester] |
| 64% | CCc1cnc(N2CCC(c3nc(CNc4ccc(S(C)(=O)=O)cc4F)cs3)CC2)nc1 [Example 141, {2-[1-(5-Ethyl-pyrimidin-2-yl)-piperidin-4-yl]-thiazol-4-ylmethyl}-(2-fluoro-4-methanesulfonyl-phenyl)-amine] |
| 78% | CC(C)(C)OC(=O)N1CCC(c2nc(CNCc3ccc(S(C)(=O)=O)cc3)cs2)CC1 [Example 142, 4-{4-[(4-Methanesulfonyl-benzylamino)-methyl]-thiazol-2-yl}-piperidine-1-carboxylic acid tert-butyl ester] |
| 63% | C[C@H](NCc1csc(C2CCN(C(=O)OC(C)(C)C)CC2)n1)c1ccc(S(C)(=O)=O)cc1 [Example 143, 4-(4-{[1-(4-Methanesulfonyl-phenyl)-ethylamino]-methyl}-thiazol-2-yl)-piperidine-1-carboxylic acid tert-butyl ester] |
| 56% | O=C(OC1CCCCC1)N1CCC(c2nc(COc3ccc(-n4cnnn4)cc3)cs2)CC1 [Example 147, 4-[4-(4-Tetrazol-1-yl-phenoxymethyl)-thiazol-2-yl]-piperidine-1-carboxylic acid cyclohexyl ester] |

| Compound | activation at 10 µM |
| --- | --- |
| CC(C)(C)OC(=O)Nc1ccc(OCc2csc(C3CCN(C(=O)OC(C)(C)C)CC3)n2)cc1 [Example 130, 4-[4-(4-tert-Butoxycarbonylamino-phenoxymethyl)-thiazol-2-yl]-piperidine-1-carboxylic acid tert-butyl ester] | 53% |
